Source: publication PMC10001202, “Preparation, Identification and Preliminary Application of the Fenvalerate Monoclonal Antibody in Six Kinds of Dark Tea” (Foods, 2023)
≈ marks a conversion by molar mass, not a printed value.

Assays:
Format in all cases: binding, BALB/c mice
McAb 5G2 = test: ic-ELISA cross-reactivity, McAb 5G2
Method: (§1) The cross-reactivities with nine permethrin pesticides (deltamethrin, permethrin, cypermethrin, bifenthrin, fenpermethrin, fluobenzene, beta-cyhalothrin, dextrofenthrin, cypermethrin) were obtained, and McAb was determined to clarify the specificity of the monoclonal antibody prepared. The IC50 of the nine permethrin pesticides was measured by the ic-ELISA with the obtained McAb and the coating antigen. The cross-reactivity was calculated with the following Formula (1):Cross-reactivity (CR, %) = IC50 of Fen/IC50 of Fen analogs × 100%(1)

McAb 2A11 = test: ic-ELISA cross-reactivity, McAb 2A11
Method: as §1

McAb 1B6 = test: ic-ELISA cross-reactivity, McAb 1B6
Method: as §1

[1] = IC50 of Fen/IC50 of analog × 100%

Row | Structure (SMILES) | IC50 (McAb 5G2) | IC50 (McAb 2A11) | IC50 (McAb 1B6) | CR% (McAb 5G2; [1]) [%] | CR% (McAb 2A11; [1]) [%] | CR% (McAb 1B6; [1]) [%]
1 | CC1(C)[C@H](C(=O)O[C@H](C#N)c2cccc(Oc3ccccc3)c2)[C@@H]1C=C(Br)Br [Deltamethrin] | >10,000 ng/mL | >10,000 ng/mL | >10,000 ng/mL | – | – | –
2 | CC1(C)C(C(=O)OC(C#N)c2cccc(Oc3ccccc3)c2)C1(C)C (stereo not drawn) [Fenpropathrin] | >10,000 ng/mL | >10,000 ng/mL | >10,000 ng/mL | – | – | –
3 | CC(C)=CC1C(C(=O)OCc2cccc(Oc3ccccc3)c2)C1(C)C [D-Phenothrin] | >10,000 ng/mL | >10,000 ng/mL | >10,000 ng/mL | – | – | –
4 | CC1(C)C(C=C(Cl)Cl)C1C(=O)OCc1cccc(Oc2ccccc2)c1 (stereo not drawn) [Permethrin] | >10,000 ng/mL | >10,000 ng/mL | >10,000 ng/mL | – | – | –
5 | CC1(C)[C@H](C(=O)O[C@H](C#N)c2cccc(Oc3ccccc3)c2)[C@@H]1/C=C(\Cl)C(F)(F)F (racemic) [Lambda-cyhalothrin] | >10,000 ng/mL | >10,000 ng/mL | >10,000 ng/mL | – | – | –
6 | CC1(C)C(C=C(Cl)c2ccc(Cl)cc2)C1C(=O)OC(C#N)c1ccc(F)c(Oc2ccccc2)c1 (stereo not drawn) [Flumethrin] | >10,000 ng/mL | >10,000 ng/mL | >10,000 ng/mL | – | – | –
7 | Cc1c(COC(=O)[C@@H]2[C@H](/C=C(\Cl)C(F)(F)F)C2(C)C)cccc1-c1ccccc1 (racemic) [Bifenthrin] | >10,000 ng/mL | >10,000 ng/mL | >10,000 ng/mL | – | – | –
8 | CC1(C)C(C=C(Cl)Cl)C1C(=O)OC(C#N)c1ccc(F)c(Oc2ccccc2)c1 (stereo not drawn) [Cyfluthrin] | >10,000 ng/mL | >10,000 ng/mL | >10,000 ng/mL | – | – | –
9 | CC(C)C(C(=O)OC(C#N)c1cccc(Oc2ccccc2)c1)c1ccc(Cl)cc1 (stereo not drawn) [Fenvalerate] | 21.65 ng/mL (≈ 0.0516 µM) | 24.29 ng/mL (≈ 0.0578 µM) | 36.6 ng/mL (≈ 0.0872 µM) | 100 | 100 | 100
10 | CC1(C)C(C=C(Cl)Cl)C1C(=O)OC(C#N)c1cccc(Oc2ccccc2)c1 (stereo not drawn) [Cypermethrin] | >10,000 ng/mL | >10,000 ng/mL | >10,000 ng/mL | – | – | –
